The subject of assay [1] is HEK293. In words: Cellular IC50 HEK293. It is filed as cell-based. The source says: (§1) XLfit (idbs) was used to determine the IC50-values in inhibition experiments. The following formula was chosen to fit the data points (Langmuir Binding Isotherm): fit=((A+(B*x))+4(C−B)*(1−exp((−1*D)*x)))/D)), res=(y−fit)
The target in assay [2] is TNKS2 (Homo sapiens (Human), UniProt Q9H2K2). In words: Biochemical IC50 TNKS2. As to conditions: read-out: Biochemical IC50 TNKS2.
Excerpt: as §1

[3] abbreviates: Homo sapiens, HEK293, read-out: Cellular IC50 HEK293.
Where [4] appears, read: Homo sapiens, HEK293, HEK293; read-out: Cellular IC50 HEK293.

Like-named read-outs stand apart in the source and are kept apart here.

Chain of TNKS2 (Q9H2K2 whole entry): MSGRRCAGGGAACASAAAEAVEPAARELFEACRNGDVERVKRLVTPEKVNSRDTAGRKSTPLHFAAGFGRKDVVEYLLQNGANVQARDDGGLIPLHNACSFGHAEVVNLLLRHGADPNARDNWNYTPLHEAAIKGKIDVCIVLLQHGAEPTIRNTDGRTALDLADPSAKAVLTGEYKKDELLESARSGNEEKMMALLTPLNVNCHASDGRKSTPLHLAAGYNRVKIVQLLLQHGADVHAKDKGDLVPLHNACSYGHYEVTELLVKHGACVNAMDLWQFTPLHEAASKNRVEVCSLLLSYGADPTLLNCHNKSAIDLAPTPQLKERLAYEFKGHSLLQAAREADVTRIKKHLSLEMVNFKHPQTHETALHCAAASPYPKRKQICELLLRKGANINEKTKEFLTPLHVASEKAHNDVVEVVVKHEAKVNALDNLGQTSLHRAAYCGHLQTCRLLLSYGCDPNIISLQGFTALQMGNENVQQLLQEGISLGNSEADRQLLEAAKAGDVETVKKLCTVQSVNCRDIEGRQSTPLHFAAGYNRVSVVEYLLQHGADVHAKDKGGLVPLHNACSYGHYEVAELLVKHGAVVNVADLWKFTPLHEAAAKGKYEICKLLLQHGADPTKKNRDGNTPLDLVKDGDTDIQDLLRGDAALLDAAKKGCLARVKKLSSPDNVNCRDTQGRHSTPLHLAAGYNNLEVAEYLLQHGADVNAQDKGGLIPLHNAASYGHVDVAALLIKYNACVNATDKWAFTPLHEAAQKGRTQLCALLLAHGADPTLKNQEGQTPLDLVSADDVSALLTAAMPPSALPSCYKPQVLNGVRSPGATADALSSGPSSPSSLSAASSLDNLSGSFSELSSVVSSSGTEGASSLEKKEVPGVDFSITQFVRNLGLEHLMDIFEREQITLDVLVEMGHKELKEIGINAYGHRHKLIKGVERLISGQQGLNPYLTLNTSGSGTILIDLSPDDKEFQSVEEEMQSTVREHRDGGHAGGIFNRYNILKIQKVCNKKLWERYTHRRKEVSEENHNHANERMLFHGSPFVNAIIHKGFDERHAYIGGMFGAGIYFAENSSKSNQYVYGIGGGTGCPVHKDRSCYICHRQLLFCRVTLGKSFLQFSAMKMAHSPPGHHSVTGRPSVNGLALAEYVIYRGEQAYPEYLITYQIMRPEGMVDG

Consider `O=C(N[C@H]1C[C@H](c2nnc(-c3ccc(OC(F)F)cn3)n2-c2ccccc2F)C1)c1cc(F)cc2nccnc12` [Example 186, N-((1S,3r)-3-(5-(5-(difluoromethoxy)pyridin-2-yl)-4-(2-fluorophenyl)-4H-1,2,4-triazol-3-yl)cyclobutyl)-7-fluoroquinoxaline-5-carboxamide], for which the half-inhibitory concentration (IC50) worked out at 0.508 nM in assay [1] (setting [3]) and 2.4 nM in assay [2].
For the compound `CCOc1ccc(-c2nnc(C34CC(NC(=O)c5ccnc6cccnc56)(C3)C4)n2-c2ccccn2)nc1` [Example 122, N-(3-(5-(5-ethoxypyridin-2-yl)-4-(pyridin-2-yl)-4H-1,2,4-triazol-3-yl)bicyclo[1.1.1]pentan-1-yl)-1,5-naphthyridine-4-carboxamide], the half-maximal inhibitory concentration (IC50) was 20 nM in assay [1] (Homo sapiens, HEK293; read-out: Cellular IC50 HEK293) and 13 nM in assay [2].
Take `CCOc1ccc(-c2nnc([C@H]3C[C@H](NC(=O)c4ccccc4)C3)n2-c2ccccc2Cl)nc1` [Example 136, N-((1S,3r)-3-(4-(2-chlorophenyl)-5-(5-ethoxypyridin-2-yl)-4H-1,2,4-triazol-3-yl)cyclobutyl)benzamide]: the IC50 turned out to be 16 nM in assay [1] (setting [4]) and 6.6 nM in assay [2].
For `O=C(N[C@H]1C[C@H](c2nnc(-c3ccncn3)n2-c2ccccc2Cl)C1)c1ccc(F)cc1` [Example 15, N-((1S,3r)-3-(4-(2-chlorophenyl)-5-(pyrimidin-4-yl)-4H-1,2,4-triazol-3-yl)cyclobutyl)-4-fluorobenzamide] the same measures were 30 nM and 4.1 nM.
For `CCOc1ccc(-c2nnc([C@H]3C[C@H](NC(=O)c4cc5sccc5[nH]4)C3)n2-c2ccccc2F)nc1` [Example 149, N-((1S,3r)-3-(5-(5-ethoxypyridin-2-yl)-4-(2-fluorophenyl)-4H-1,2,4-triazol-3-yl)cyclobutyl)-4H-thieno[3,2-b]pyrrole-5-carboxamide] the same measures were 27 nM and 7.4 nM.
For `CCOc1ccc(-c2nnc([C@H]3C[C@H](NC(=O)c4ccc5cccnc5n4)C3)n2-c2ccccc2F)nc1` [Example 147, N-((1S,3r)-3-(5-(5-ethoxypyridin-2-yl)-4-(2-fluorophenyl)-4H-1,2,4-triazol-3-yl)cyclobutyl)-1,8-naphthyridine-2-carboxamide], in that order: 78 nM and 19 nM.
`CCOc1ccc(C(=O)N[C@H]2C[C@H](c3nnc(-c4nccs4)n3-c3ccccc3F)C2)nc1` [Example 30, 5-ethoxy-N-((1S,3r)-3-(4-(2-fluorophenyl)-5-(thiazol-2-yl)-4H-1,2,4-triazol-3-yl)cyclobutyl)picolinamide]: the 50% inhibitory concentration (IC50) in assay [1] (setting [4]) was found to be 16 nM; in assay [2], 2 nM.
With `Cc1cccc(-c2nnc([C@H]3C[C@H](NC(=O)c4ccc5cnccc5n4)C3)n2-c2ccccc2F)n1` [Example 200, N-((1S,3r)-3-(4-(2-fluorophenyl)-5-(6-methylpyridin-2-yl)-4H-1,2,4-triazol-3-yl)cyclobutyl)-1,6-naphthyridine-2-carboxamide], the figures for the IC50 in assay [1] (setting [4]) and in assay [2] were 12 nM and 4 nM, respectively.
For `CCOc1ccc(-c2nnc([C@H]3C[C@H](NC(=O)c4ccccn4)C3)n2-c2ccccc2Cl)nc1` [Example 134, N-((1S,3r)-3-(4-(2-chlorophenyl)-5-(5-ethoxypyridin-2-yl)-4H-1,2,4-triazol-3-yl)cyclobutyl)picolinamide], the half-inhibitory concentration (IC50) turned out to be 4.5 nM in assay [1] (setting [4]) and 3.7 nM in assay [2].
Regarding `CCOc1ccc(-c2nnc([C@H]3C[C@H](NC(=O)c4nc5ccccc5[nH]4)C3)n2-c2ccccc2)nc1` [Example 73, N-((1r,3r)-3-(5-(5-ethoxypyridin-2-yl)-4-phenyl-4H-1,2,4-triazol-3-yl)cyclobutyl)-1H-benzo[d]imidazole-2-carboxamide], the 50% inhibitory concentration (IC50) in assay [1] (setting [4]) was found to be 102 nM; in assay [2], 7 nM.
For `CCOc1ccc(-c2nnc([C@H]3C[C@H](NC(=O)c4ccccc4)C3)n2-c2ccccc2F)nc1` [Example 52, N-((1S,3r)-3-(5-(5-ethoxypyridin-2-yl)-4-(2-fluorophenyl)-4H-1,2,4-triazol-3-yl)cyclobutyl)benzamide] the same measures were 73 nM and 9.5 nM.
For `CCOc1ccc(-c2nnc([C@H]3C[C@H](NC(=O)c4cc5cc(OC)ncc5[nH]4)C3)n2-c2ccccc2F)nc1` [Example 127, N-((1S,3r)-3-(5-(5-ethoxypyridin-2-yl)-4-(2-fluorophenyl)-4H-1,2,4-triazol-3-yl)cyclobutyl)-5-methoxy-1H-pyrrolo[2,3-c]pyridine-2-carboxamide] the same measures were 9.1 nM and 4.3 nM.
`CCOc1ccc(-c2nnc([C@H]3C[C@H](NC(=O)c4ccccn4)C3)n2-c2ccc(Cl)s2)nc1` [Example 75, N-((1r,3r)-3-(4-(5-chlorothiophen-2-yl)-5-(5-ethoxypyridin-2-yl)-4H-1,2,4-triazol-3-yl)cyclobutyl)picolinamide]: the IC50 in assay [1] (setting [3]) was 27 nM; in assay [2] it was 12 nM.
Consider `CCOc1ccc(-c2nnc([C@H]3C[C@H](NC(=O)c4cc5sc(C)cc5[nH]4)C3)n2-c2ccccc2F)nc1` [Example 150, N-((1S,3r)-3-(5-(5-ethoxypyridin-2-yl)-4-(2-fluorophenyl)-4H-1,2,4-triazol-3-yl)cyclobutyl)-2-methyl-4H-thieno[3,2-b]pyrrole-5-carboxamide], for which the values for the IC50 in assay [1] (setting [4]) and in assay [2] were 16 nM and 9.5 nM, respectively.
`O=C(N[C@H]1C[C@H](c2nnc(-c3ccccc3)n2-c2ccccc2F)C1)c1ccc2cnccc2n1` [Example 178, N-((1S,3r)-3-(4-(2-fluorophenyl)-5-phenyl-4H-1,2,4-triazol-3-yl)cyclobutyl)-1,6-naphthyridine-2-carboxamide]: the IC50 in assay [1] (setting [4]) came out at 165 nM; in assay [2], 21 nM.
Consider `CCOc1ccc(-c2nnc([C@H]3C[C@H](NC(=O)c4ccc5cnccc5n4)C3)n2-c2ccccc2F)nc1` [Example 97, N-((1S,3r)-3-(5-(5-ethoxypyridin-2-yl)-4-(2-fluorophenyl)-4H-1,2,4-triazol-3-yl)cyclobutyl)-1,6-naphthyridine-2-carboxamide], for which the 50% inhibitory concentration (IC50) in assay [1] (setting [4]) is 7.5 nM; in assay [2], 2.5 nM.
In the case of `O=C(N[C@H]1C[C@H](c2nnc(-c3nccs3)n2-c2ccccn2)C1)c1ccnc2cccnc12` [Example 37, N-((1r,3r)-3-(4-(pyridin-2-yl)-5-(thiazol-2-yl)-4H-1,2,4-triazol-3-yl)cyclobutyl)-1,5-naphthyridine-4-carboxamide], the IC50 in assay [1] (setting [4]) was found to be 88 nM; in assay [2], 25 nM.
For `O=C(N[C@H]1C[C@H](c2nnc(-c3ccncn3)n2-c2ccccc2Cl)C1)c1cccc(F)n1` [Example 19, N-((1S,3r)-3-(4-(2-chlorophenyl)-5-(pyrimidin-4-yl)-4H-1,2,4-triazol-3-yl)cyclobutyl)-6-fluoropicolinamide] the same measures were 0.86 nM and 3 nM.
For `Cc1ccc(-n2c(-c3nccs3)nnc2[C@H]2C[C@H](NC(=O)c3ccnc4cccnc34)C2)s1` [Example 89, N-((1r,3r)-3-(4-(5-methylthiophen-2-yl)-5-(thiazol-2-yl)-4H-1,2,4-triazol-3-yl)cyclobutyl)-1,5-naphthyridine-4-carboxamide] the same measures were 2.4 nM and 2.7 nM.
Take `O=C(N[C@H]1C[C@H](c2nnc(-c3nccs3)n2-c2cccnc2)C1)c1cccc2cccnc12` [Example 114, N-((1r,3r)-3-(4-(pyridin-3-yl)-5-(thiazol-2-yl)-4H-1,2,4-triazol-3-yl)cyclobutyl)quinoline-8-carboxamide]: the half-maximal inhibitory concentration (IC50) was determined as 230 nM in assay [1] (setting [4]) and 20 nM in assay [2].
For `O=C(N[C@H]1C[C@H](c2nnc(-c3ccncn3)n2-c2ccccc2Cl)C1)c1cccnc1` [Example 9, N-((1S,3r)-3-(4-(2-chlorophenyl)-5-(pyrimidin-4-yl)-4H-1,2,4-triazol-3-yl)cyclobutyl)nicotinamide] the same measures were 50 nM and 18 nM.
Regarding `O=C(N[C@H]1C[C@H](c2nnc(-c3ccc(OC(F)F)cn3)n2-c2ccccc2F)C1)c1cccc2nccnc12` [Example 185, N-((1S,3r)-3-(5-(5-(difluoromethoxy)pyridin-2-yl)-4-(2-fluorophenyl)-4H-1,2,4-triazol-3-yl)cyclobutyl)quinoxaline-5-carboxamide], the 50% inhibitory concentration (IC50) in assay [1] (setting [3]) was found to be 1.2 nM; in assay [2], 1.9 nM.
Turning to `O=C(N[C@H]1C[C@H](c2nnc(-c3nccs3)n2-c2ccccc2F)C1)c1ccc(F)cc1` [Example 28, 4-fluoro-N-((1S,3r)-3-(4-(2-fluorophenyl)-5-(thiazol-2-yl)-4H-1,2,4-triazol-3-yl)cyclobutyl)benzamide], the half-maximal inhibitory concentration (IC50) in assay [1] (setting [4]) is 240 nM; in assay [2], 51 nM.
As to `COc1ccc(C(=O)N[C@H]2C[C@H](c3nnc(-c4ccncn4)n3-c3ccccc3Cl)C2)nc1` [Example 131, N-((1R,3r)-3-(4-(2-chlorophenyl)-5-(pyrimidin-4-yl)-4H-1,2,4-triazol-3-yl)cyclobutyl)-5-methoxypicolinamide], the IC50 in assay [1] (setting [4]) worked out at 0.66 nM; in assay [2] it was 4.5 nM.
For `O=C(N[C@H]1C[C@H](c2nnc(-c3nccs3)n2-c2cccnc2)C1)c1ccccn1` [Example 109, N-((1r,3r)-3-(4-(pyridin-3-yl)-5-(thiazol-2-yl)-4H-1,2,4-triazol-3-yl)cyclobutyl)picolinamide] the same measures were 4700 nM and 800 nM.
For `O=C(N[C@H]1C[C@H](c2nnc(-c3ccncn3)n2-c2ccccc2Cl)C1)c1ccc(F)cn1` [Example 17, N-((1S,3r)-3-(4-(2-chlorophenyl)-5-(pyrimidin-4-yl)-4H-1,2,4-triazol-3-yl)cyclobutyl)-5-fluoropicolinamide], in that order: 2.4 nM and 2.7 nM.

In general, IC50 refers to the concentration that gives 50% inhibition.

Values taken from patent US11926614B2, “1,2,4-triazole derivatives as tankyrase inhibitors” (priority 2018, dated 2024).
